According to ChEMBL document CHEMBL2021770, “Potent and Selective Inhibitors of Long Chain l-2-Hydroxy Acid Oxidase Reduced Blood Pressure in DOCA Salt-Treated Rats” (ACS Med Chem Lett, 2011):
pIC50: −log10 of the molar value. Calls of active or inactive are those of the source. The calls are words filed in the database; no cut-off is given here.

Columns and labels:
Rattus norvegicus [1] = species on record: Rattus norvegicus; assay: Selectivity ratio of IC50 for rat Hao1 to IC50 for rat Hao2
Rattus norvegicus [2] = assay: Antihypertensive activity in DOCA-salt treated Wistar rat assessed as decrease in systolic blood pressure at 30 mg/kg, po bid administered 29 days after DOCA-salt-challenge for 15 days 12 to 15 hrs post-last dose by plethysmography; format: functional, Artery
HepG2 = assay: Cytotoxicity against human HepG2 cells; format: cell-based
Rattus norvegicus [3] = assay: Ex-vivo inhibition of Hao2 in DOCA-salt treated Wistar rat kidney using [3H]-2-hydroxyoctanate as substrate assessed as inhibition of [3H]-H2O production at 30 mg/kg, po bid administered 29 days post DOCA-challenge for 15 days measured 1 hr post-last dose by microbeta counting relative to vehicle-treated control; format: functional
Rattus norvegicus [4] = assay: Ex-vivo inhibition of Hao2 in DOCA-salt treated Wistar rat kidney using [3H]-2-hydroxyoctanate as substrate assessed as inhibition of [3H]-H2O production at 30 mg/kg, po bid administered 29 days post DOCA-challenge for 15 days measured 12 to 15 hrs post-last dose by microbeta counting relative to vehicle-treated control; format: functional
[5] = molecular target: T1, 2-Hydroxyacid oxidase 1 (Rattus norvegicus) (UniProt B0BNF9); assay: Inhibition of rat His6-tagged Hao1 expressed in Escherichia coli BL21/DE3 using glcolic acid as substrate at 10 uM measured every 10 secs by spectrophotometry
T1 sequence (whole entry): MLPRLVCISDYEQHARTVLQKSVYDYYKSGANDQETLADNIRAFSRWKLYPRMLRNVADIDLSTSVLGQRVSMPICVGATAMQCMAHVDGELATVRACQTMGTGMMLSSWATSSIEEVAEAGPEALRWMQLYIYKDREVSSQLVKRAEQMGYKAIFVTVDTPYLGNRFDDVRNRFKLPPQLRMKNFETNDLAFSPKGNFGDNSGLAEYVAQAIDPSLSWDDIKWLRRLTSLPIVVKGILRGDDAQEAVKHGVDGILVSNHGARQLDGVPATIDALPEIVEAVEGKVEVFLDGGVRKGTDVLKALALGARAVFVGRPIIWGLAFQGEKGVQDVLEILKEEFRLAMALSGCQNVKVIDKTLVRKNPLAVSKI

[6] = molecular target: Hydroxycarboxylic acid receptor 2 (Homo sapiens) (UniProt Q8TDS4); assay: Agonist activity at human GPR109a at 10 uM; format: functional
Rattus norvegicus [7] = assay: Ex-vivo inhibition of Hao2 in DOCA-salt treated Wistar rat kidney using [3H]-2-hydroxyoctanate as substrate assessed as inhibition of [3H]-H2O production at 3 mg/kg, po bid administered 29 days post DOCA-challenge for 15 days measured 1 hr post-last dose by microbeta counting relative to vehicle-treated control; format: functional
Rattus norvegicus [8] = assay: Antihypertensive activity in DOCA-salt treated Wistar rat assessed as decrease in systolic blood pressure at 3 mg/kg, po bid administered 29 days after DOCA-salt-challenge for 15 days 12 to 15 hrs post-last dose by plethysmography; format: functional
Rattus norvegicus [9] = assay: Ex-vivo inhibition of Hao2 in DOCA-salt treated Wistar rat kidney using [3H]-2-hydroxyoctanate as substrate assessed as inhibition of [3H]-H2O production at 3 mg/kg, po bid administered 29 days post DOCA-challenge for 15 days measured 12 to 15 hrs post-last dose by microbeta counting relative to vehicle-treated control; format: functional
2-Hydroxyacid oxidase 2 = molecular target: T2, 2-Hydroxyacid oxidase 2 (Rattus norvegicus, UniProt Q07523); assay: Inhibition of rat His6-tagged Hao2 expressed in Escherichia coli BL21/DE3 using 2-hydroxyoctanoic acid as substrate measured every 10 secs by spectrophotometry
T2 sequence (Q07523 whole entry): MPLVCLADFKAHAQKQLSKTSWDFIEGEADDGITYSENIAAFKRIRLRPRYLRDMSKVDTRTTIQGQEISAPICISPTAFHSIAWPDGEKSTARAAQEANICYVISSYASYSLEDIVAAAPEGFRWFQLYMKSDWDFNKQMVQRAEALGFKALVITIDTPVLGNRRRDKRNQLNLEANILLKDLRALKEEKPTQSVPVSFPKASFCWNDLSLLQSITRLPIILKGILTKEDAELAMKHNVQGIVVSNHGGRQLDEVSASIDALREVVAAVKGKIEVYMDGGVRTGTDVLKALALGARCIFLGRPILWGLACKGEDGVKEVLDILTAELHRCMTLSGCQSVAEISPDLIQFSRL

[10] = molecular target: T3, 2-Hydroxyacid oxidase 2 (Rattus norvegicus) (UniProt Q07523); assay: Inhibition of rat His6-tagged Hao2 expressed in Escherichia coli BL21/DE3 using 2-hydroxyoctanoic acid as substrate at 10 uM measured every 10 secs by spectrophotometry
T3 sequence (whole entry): T2 sequence (Q07523 whole entry)

Kidney [11] = assay: Drug uptake in Wistar rat kidney at 30 mg/kg, po bid administered for 15 days measured 12 to 15 hrs post-last dose; format: ADME, organism-based; set-up: dose 30 mg/kg, route oral; conditions: in vivo
[12] = Oral bioavailability in rat at 10 mg/kg; format: ADME, organism-based; conditions: in vivo
2-Hydroxyacid oxidase 1 = molecular target: T4, 2-Hydroxyacid oxidase 1 (Rattus norvegicus, UniProt B0BNF9); assay: Inhibition of rat His6-tagged Hao1 expressed in Escherichia coli BL21/DE3 using glcolic acid as substrate measured every 10 secs by spectrophotometry
T4 sequence (B0BNF9 whole entry): T1 sequence (whole entry)

Kidney [13] = assay: Drug uptake in Wistar rat kidney at 3 mg/kg, po bid administered for 15 days measured 1 hr post-last dose; format: ADME, organism-based; set-up: dose 3 mg/kg, route oral; conditions: in vivo
[14] = Volume of distribution at steady state in rat at 1 mg/kg, iv; format: ADME, organism-based; set-up: dose 1 mg/kg, route intravenous; conditions: in vivo, read-out: Vdss
[15] = Cmax in rat at 10 mg/kg, po; format: ADME, organism-based; set-up: dose 10 mg/kg, route oral; conditions: in vivo
[16] = Drug metabolism in rat liver microsomes assessed as metabolic rate per 0.125 mg/mL protein; format: ADME, Microsome
[17] = Induction of cytochrome P450 at 10 uM; format: ADME
Cytochrome P450 2D6 = Cytochrome P450 2D6 (Homo sapiens, UniProt P10635); assay: Inhibition of CYP2D6; format: ADME
Cytochrome P450 2C9 = Cytochrome P450 2C9 (Homo sapiens, UniProt P11712); assay: Inhibition of CYP2C9; format: ADME
Rattus norvegicus [18] = assay: Antihypertensive activity in Wistar rat assessed as reduction in DOCA-salt-induced systolic blood pressure elevation at 30 mg/kg, po bid administered on day 14 post DOCA-challenge for 21 days measured 12 to 15 hrs post-last dose by plethysmography relative to vehicle-treated control; format: functional, organism-based; set-up: dose 30 mg/kg; conditions: Artery
[19] = Tmax in rat at 10 mg/kg, po; format: ADME, organism-based; set-up: dose 10 mg/kg, route oral; conditions: in vivo
[20] = AUC (0 to 8 hrs) in rat at 10 mg/kg, po; format: ADME, organism-based; set-up: time < 8 hr, dose 10 mg/kg, route oral; conditions: plasma
Kidney [21] = assay: Drug uptake in Wistar rat kidney at 3 mg/kg, po bid administered for 15 days measured 12 to 15 hrs post-last dose; format: ADME, organism-based; set-up: dose 3 mg/kg, route oral; conditions: in vivo
[22] = Plasma concentration in Wistar rat at 3 mg/kg, po bid administered for 15 days measured 1 hr post-last dose; format: ADME, organism-based; set-up: dose 3 mg/kg, route oral
[23] = Plasma protein binding in rat; format: ADME, cell-free; conditions: read-out: PPB
Plasma [24] = assay: Plasma concentration in Wistar rat at 3 mg/kg, po bid administered for 15 days measured 12 to 15 hrs post-last dose; format: ADME, organism-based; set-up: dose 3 mg/kg, route oral; conditions: in vivo
[25] = Clearance in rat at 1 mg/kg, iv; format: ADME, organism-based; set-up: dose 1 mg/kg, route intravenous; conditions: in vivo
Cytochrome P450 2C19 = Cytochrome P450 2C19 (Homo sapiens, UniProt P33261); assay: Inhibition of CYP2C19; format: ADME
Plasma [26] = assay: Plasma concentration in Wistar rat at 30 mg/kg, po bid administered for 15 days measured 12 to 15 hrs post-last dose; format: ADME, organism-based; set-up: dose 30 mg/kg, route oral; conditions: in vivo
[27] = Elimination half life in rat at 10 mg/kg, po; format: ADME, organism-based; set-up: dose 10 mg/kg, route oral; conditions: in vivo, read-out: beta t1/2 (converted)
Kidney [28] = assay: Drug uptake in Wistar rat kidney at 30 mg/kg, po bid administered for 15 days measured 1 hr post-last dose; format: ADME, organism-based; set-up: dose 30 mg/kg, route oral; conditions: in vivo
[29] = Plasma concentration in Wistar rat at 30 mg/kg, po bid administered for 15 days measured 1 hr post-last dose; format: ADME, organism-based; set-up: dose 30 mg/kg, route oral
[30] = molecular target: T5, Nuclear receptor subfamily 1 group I member 2 (Homo sapiens, UniProt O75469); assay: Induction of PXR at 100 uM
T5 sequence (O75469 whole entry): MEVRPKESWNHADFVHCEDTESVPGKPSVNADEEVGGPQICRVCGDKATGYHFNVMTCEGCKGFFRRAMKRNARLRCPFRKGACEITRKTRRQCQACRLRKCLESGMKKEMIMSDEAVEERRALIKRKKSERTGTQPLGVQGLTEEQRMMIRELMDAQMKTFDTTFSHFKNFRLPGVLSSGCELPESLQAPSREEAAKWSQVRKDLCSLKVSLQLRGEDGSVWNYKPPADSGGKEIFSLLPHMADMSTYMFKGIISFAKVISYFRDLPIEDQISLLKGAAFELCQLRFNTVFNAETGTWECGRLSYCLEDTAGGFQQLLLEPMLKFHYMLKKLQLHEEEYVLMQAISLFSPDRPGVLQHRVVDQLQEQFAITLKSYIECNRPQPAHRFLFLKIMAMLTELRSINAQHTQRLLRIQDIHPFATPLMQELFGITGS

[31] = Elimination half life in rat at 1 mg/kg, iv; format: ADME, organism-based; set-up: dose 1 mg/kg, route intravenous; conditions: in vivo, read-out: beta t1/2 (converted)
Cytochrome P450 1A2 = molecular target: T6, Cytochrome P450 1A2 (Homo sapiens, UniProt P05177); assay: Inhibition of CYP1A2; format: ADME
T6 sequence (P05177 whole entry): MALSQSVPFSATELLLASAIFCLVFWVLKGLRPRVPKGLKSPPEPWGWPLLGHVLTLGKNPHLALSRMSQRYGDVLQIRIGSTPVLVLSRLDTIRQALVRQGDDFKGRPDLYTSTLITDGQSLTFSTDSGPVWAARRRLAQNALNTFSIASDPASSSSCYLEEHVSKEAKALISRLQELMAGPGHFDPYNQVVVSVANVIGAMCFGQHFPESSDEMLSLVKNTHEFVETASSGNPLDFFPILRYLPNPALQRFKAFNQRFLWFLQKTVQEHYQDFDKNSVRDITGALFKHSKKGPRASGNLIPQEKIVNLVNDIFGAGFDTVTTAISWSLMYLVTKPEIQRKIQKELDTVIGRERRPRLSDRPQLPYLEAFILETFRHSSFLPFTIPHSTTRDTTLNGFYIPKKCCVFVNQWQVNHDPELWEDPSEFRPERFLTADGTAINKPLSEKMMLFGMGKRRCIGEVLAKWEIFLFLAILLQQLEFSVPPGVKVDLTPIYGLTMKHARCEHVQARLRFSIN

[32] = AUC (0 to 8 hrs) in rat at 1 mg/kg, iv; format: ADME, organism-based; set-up: time < 8 hr, dose 1 mg/kg, route intravenous; conditions: plasma
Cytochrome P450 3A4 = Cytochrome P450 3A4 (Homo sapiens, UniProt P08684); assay: Inhibition of CYP3A4; format: ADME
Cytochrome P450 3A4, sequence (P08684 whole entry): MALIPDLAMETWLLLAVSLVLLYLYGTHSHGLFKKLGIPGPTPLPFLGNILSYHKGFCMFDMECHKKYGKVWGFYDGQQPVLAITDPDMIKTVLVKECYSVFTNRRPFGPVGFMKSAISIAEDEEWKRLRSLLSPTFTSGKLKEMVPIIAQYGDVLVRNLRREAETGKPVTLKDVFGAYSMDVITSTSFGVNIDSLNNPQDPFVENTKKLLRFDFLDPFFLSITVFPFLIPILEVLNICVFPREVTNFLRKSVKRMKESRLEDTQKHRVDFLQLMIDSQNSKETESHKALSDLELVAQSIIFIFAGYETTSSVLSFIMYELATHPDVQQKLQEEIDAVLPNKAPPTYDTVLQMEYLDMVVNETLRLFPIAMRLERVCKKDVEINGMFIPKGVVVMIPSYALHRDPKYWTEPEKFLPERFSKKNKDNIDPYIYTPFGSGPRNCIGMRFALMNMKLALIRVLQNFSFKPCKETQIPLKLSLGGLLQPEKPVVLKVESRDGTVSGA

Hydroxycarboxylic acid receptor 2 (Homo sapiens), sequence (Q8TDS4 whole entry): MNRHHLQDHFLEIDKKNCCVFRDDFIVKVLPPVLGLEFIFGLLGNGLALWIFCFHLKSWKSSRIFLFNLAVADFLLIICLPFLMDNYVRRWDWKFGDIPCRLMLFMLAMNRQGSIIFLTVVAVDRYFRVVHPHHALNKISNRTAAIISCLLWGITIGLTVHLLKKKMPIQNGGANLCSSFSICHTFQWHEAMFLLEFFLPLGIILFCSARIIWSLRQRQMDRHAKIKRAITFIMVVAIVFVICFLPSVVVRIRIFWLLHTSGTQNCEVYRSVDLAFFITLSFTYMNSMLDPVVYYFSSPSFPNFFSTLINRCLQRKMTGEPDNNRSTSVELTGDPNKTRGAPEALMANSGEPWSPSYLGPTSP
Cytochrome P450 2C9, sequence (P11712 whole entry): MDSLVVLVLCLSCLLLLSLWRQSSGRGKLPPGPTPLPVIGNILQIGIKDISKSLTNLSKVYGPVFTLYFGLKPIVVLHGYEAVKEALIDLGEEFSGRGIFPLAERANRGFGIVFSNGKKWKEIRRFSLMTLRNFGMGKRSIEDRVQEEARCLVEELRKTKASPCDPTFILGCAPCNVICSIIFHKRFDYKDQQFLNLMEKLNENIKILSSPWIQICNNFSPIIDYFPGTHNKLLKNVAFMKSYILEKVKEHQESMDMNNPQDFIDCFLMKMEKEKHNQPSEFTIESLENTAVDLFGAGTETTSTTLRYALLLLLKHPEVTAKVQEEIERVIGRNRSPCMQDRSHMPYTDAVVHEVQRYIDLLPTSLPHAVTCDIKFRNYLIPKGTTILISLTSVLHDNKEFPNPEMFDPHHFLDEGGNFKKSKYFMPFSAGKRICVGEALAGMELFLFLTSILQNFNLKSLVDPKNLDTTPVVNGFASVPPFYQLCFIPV
Cytochrome P450 2D6, sequence (P10635 whole entry): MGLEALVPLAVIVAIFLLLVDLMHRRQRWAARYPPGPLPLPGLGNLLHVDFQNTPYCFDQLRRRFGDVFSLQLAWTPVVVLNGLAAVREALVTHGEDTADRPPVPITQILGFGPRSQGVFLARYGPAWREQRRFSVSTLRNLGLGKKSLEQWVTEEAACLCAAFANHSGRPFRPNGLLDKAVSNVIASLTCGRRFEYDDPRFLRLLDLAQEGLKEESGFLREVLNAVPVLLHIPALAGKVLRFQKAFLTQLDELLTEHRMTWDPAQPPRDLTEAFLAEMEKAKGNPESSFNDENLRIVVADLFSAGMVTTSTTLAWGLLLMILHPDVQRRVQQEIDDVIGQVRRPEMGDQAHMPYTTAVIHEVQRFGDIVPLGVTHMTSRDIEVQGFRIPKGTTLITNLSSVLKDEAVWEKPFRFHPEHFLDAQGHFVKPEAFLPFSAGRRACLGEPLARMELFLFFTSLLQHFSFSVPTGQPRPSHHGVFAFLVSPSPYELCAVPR
Cytochrome P450 2C19, sequence (P33261 whole entry): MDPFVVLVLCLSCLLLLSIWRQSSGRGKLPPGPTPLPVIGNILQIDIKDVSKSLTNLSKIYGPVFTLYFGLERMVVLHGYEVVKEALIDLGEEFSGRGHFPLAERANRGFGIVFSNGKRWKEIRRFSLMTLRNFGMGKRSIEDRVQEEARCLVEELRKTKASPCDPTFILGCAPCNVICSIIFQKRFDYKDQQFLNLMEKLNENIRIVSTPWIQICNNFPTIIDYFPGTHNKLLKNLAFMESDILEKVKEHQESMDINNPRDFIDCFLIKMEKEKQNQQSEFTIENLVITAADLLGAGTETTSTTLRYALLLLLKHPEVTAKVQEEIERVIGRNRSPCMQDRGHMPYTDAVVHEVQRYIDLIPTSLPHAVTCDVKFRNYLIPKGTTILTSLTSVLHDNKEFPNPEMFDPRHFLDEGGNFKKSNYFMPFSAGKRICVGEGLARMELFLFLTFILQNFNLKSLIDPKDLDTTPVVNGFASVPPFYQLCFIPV

SMILES: Cc1n[nH]c(C(=O)O)c1Cc1cc2ccccc2s1
- Ratio IC50 (Rattus norvegicus [1]): 150
- Activity (Rattus norvegicus [2]): 33 mmHg
- pIC50 (HepG2): < 4.00
- inhibition in vivo at 30 mg/kg (Rattus norvegicus [3]): 93%
- inhibition in vivo at 30 mg/kg (Rattus norvegicus [4]): 42%
- inhibition [5]: inactive
- Activity [6]: inactive
- inhibition in vivo at 3 mg/kg (Rattus norvegicus [7]): 75%
- Activity (Rattus norvegicus [8]): 27 mmHg
- inhibition in vivo at 3 mg/kg (Rattus norvegicus [9]): 0%

SMILES: Cc1[nH]nc(C(=O)O)c1CCc1ccc(-c2ccccc2)cc1
- pIC50 (2-Hydroxyacid oxidase 2): 6.04

SMILES: Cc1n[nH]c(C(=O)O)c1-c1ccc(F)cc1
- inhibition [10]: 35%

SMILES: Cc1n[nH]c(C(=O)O)c1Cc1cccc(-c2ccc(F)cc2)c1
- Drug uptake (Kidney [11]): 7 nmol/g
- Ratio IC50 (Rattus norvegicus [1]): 150
- bioavailability [12]: 38%
- pIC50 (2-Hydroxyacid oxidase 1): 4.34
- Activity (Rattus norvegicus [2]): 31 mmHg
- Drug uptake (Kidney [13]): 10 nmol/g
- Vd [14]: 0.6 L/kg
- Cmax [15]: 24000 nM
- Drug metabolism [16]: 0.003 nmol/min/mg
- pIC50 (HepG2): < 4.00
- inhibition in vivo at 30 mg/kg (Rattus norvegicus [3]): 38%
- Activity [17]: Not Active
- inhibition in vivo at 30 mg/kg (Rattus norvegicus [4]): 28%
- pIC50 (Cytochrome P450 2D6): < 5.00
- pIC50 (Cytochrome P450 2C9): < 5.00
- Activity (Rattus norvegicus [18]): Active
- Tmax [19]: 0.25 h
- AUC(0-t) at 8 h [20]: 27 µM·h
- Drug uptake (Kidney [21]): 3 nmol/g
- concentration at 1 h [22]: 2200 nM
- fraction unbound [23]: < 0.01
- concentration (Plasma [24]): 200 nM
- Activity [6]: inactive
- clearance [25]: 8 mL/min/kg
- pIC50 (Cytochrome P450 2C19): < 5.00
- concentration (Plasma [26]): 1900 nM
- half-life [27]: 1.5 h
- Drug uptake (Kidney [28]): 24 nmol/g
- inhibition in vivo at 3 mg/kg (Rattus norvegicus [7]): 29%
- concentration at 1 h [29]: 8000 nM
- Activity (Rattus norvegicus [8]): 32 mmHg
- Activity [30]: Not Active
- pIC50 (2-Hydroxyacid oxidase 2): 6.52
- half-life [31]: 1.7 h
- pIC50 (Cytochrome P450 1A2): < 5.00
- inhibition in vivo at 3 mg/kg (Rattus norvegicus [9]): 0%
- AUC(0-t) at 8 h [32]: 7.1 µM·h
- pIC50 (Cytochrome P450 3A4): < 5.00
